# Literature values as cited in patent US20140221306A1 (Santen Pharmaceutical Co. Ltd, priority 2010, published 2014).
# Key:
# dry eye patients = conditions: instillation of an ophthalmic solution; Cornea, 23(8), 784-792 (2004)
# [1] = disclosed in Japanese Patent No. 3652707 (PTD 1)
SMILES,corneal epithelium disorder of dry eye patients (dry eye patients),effect on secretion of tears [1]
O=c1ccn([C@@H]2O[C@H](COP(=O)([O-])OP(=O)([O-])OP(=O)([O-])OP(=O)([O-])OC[C@H]3O[C@@H](n4ccc(=O)[nH]c4=O)[C@H](O)[C@@H]3O)[C@@H](O)[C@H]2O)c(=O)[nH]1.[Na+].[Na+].[Na+].[Na+] [diquafosol tetrasodium salt],improved corneal epithelium disorder,–
"O=c1ccn([C@@H]2O[C@H](COP(=O)(O)OP(=O)(O)OP(=O)(O)OP(=O)(O)OC[C@H]3O[C@@H](n4ccc(=O)[nH]c4=O)C(O)C3O)C(O)C2O)c(=O)[nH]1 (some centres unmarked) [Diquafosol, P^1,P^4-di(uridine-5′)tetraphosphate]",–,effect of stimulating secretion of tears
